The values below come from patent US20230183239A1, “ECTONUCLEOTIDE PYROPHOSPHATASE-PHOSPHODIESTERASE 1 (ENPP-1) INHIBITORS AND USES THEREOF” (AbbVie Inc., priority 2017, published 2023).

Molecules are shown by their SMILES. pKi: −log10 of the molar value.

What is called pKi is the negative decadic logarithm of the Ki, by convention in mol/L.

Holding throughout (type): biochemical
Experiment [1] has as its target T1, ENPP1 (Homo sapiens, UniProt P22413).
T1 sequence (P22413 1-925): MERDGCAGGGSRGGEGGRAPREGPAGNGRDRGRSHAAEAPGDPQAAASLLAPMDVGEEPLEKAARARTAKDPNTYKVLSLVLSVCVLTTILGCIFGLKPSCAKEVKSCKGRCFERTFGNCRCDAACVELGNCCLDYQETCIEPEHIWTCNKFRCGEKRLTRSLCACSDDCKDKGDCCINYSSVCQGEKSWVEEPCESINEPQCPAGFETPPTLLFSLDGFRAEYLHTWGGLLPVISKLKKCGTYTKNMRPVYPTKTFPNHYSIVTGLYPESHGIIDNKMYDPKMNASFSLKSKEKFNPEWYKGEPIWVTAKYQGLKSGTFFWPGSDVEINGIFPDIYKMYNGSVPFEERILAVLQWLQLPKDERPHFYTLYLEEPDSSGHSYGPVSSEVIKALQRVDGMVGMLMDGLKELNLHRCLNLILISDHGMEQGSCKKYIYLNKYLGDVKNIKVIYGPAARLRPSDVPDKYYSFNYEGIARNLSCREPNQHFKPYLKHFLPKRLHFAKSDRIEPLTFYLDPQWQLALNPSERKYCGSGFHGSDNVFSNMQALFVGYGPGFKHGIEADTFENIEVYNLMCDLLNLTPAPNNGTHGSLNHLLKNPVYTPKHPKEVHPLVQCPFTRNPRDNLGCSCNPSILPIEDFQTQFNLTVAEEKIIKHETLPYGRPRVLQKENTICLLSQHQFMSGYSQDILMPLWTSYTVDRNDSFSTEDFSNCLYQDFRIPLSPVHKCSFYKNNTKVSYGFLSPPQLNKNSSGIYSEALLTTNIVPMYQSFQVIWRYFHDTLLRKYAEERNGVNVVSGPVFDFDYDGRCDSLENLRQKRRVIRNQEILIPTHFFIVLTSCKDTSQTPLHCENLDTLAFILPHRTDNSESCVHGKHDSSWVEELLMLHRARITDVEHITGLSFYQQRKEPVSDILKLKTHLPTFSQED
In words: ENPP1 enzyme assay with AMP-pNP substrate (hydrolysis of ATP analog). The following applies: AMP-pNP substrate (ATP analog); Ki from IC50 by Cheng-Prusoff; read-out: ENPP1 Inhibition _AMP-pNP: Ki. As to the method:
The ENPP1 assay with AMP-pNP substrate is conducted in a buffer containing 50 mM Tris-HCl (pH 8.5)/ 250 mM NaCl/0.5 mM CaCl2/1 µM ZnCl2/0.1% DMSO. Inhibitors are added at final concentrations ranging between 10 µM and 30 pM depending on the compound. Duplicate wells are run at each inhibitor concentration. The final assay volume is 40 µL and human recombinant ENPP1 is present at 60 ng/well. The assay is initiated by the addition of substrate (300 µM AMP-pNP final concentration), and incubated for 20 minutes at 37° C. […] Each assay plate also includes wells with no enzyme added (MIN OD) and wells with no inhibitor added (MAX OD). The percent inhibition of ENPP1 for each sample is then calculated as: […]
IC50 values of compounds were calculated by entering the percent inhibition values into a sigmoidal variable slope nonlinear regression model in GraphPad Prism® software.

Experiment [2] deals with T1, ENPP1. In words: Indirect quantitation of 2',3'-cGAMP hydrolysis (AMP-Glo Assay kit). The note with it: cGAMP substrate; Ki from IC50 by Cheng-Prusoff; read-out: ENPP1 Inhibition -cGAMP: Ki.
For experiment [3], the target named is T1, ENPP1. Description: Substrate selectivity ratio, inhibition of cGAMP hydrolysis versus ATP hydrolysis. The note with it: ratio Ki AMP-pNP / Ki cGAMP. As to the method:
The selectivity ratios for inhibition of cGAMP hydrolysis versus ATP hydrolysis were then calculated as follows: […]

Regarding `COc1cc(F)c2c(N3CCc4cc(NS(N)(=O)=O)ccc43)ccnc2c1` [Example 412, N-(1-(5-fluoro-7-methoxyquinolin-4-yl)indolin-5-yl)sulfamide], the pKi on ENPP1 [1] was under 6.00; at ENPP1 [2] it was 6.00 to 7.00. On ENPP1 [3], the “Substrate Selectivity: Ki_AMP-pNP/Ki_cGAMP” value (shortened to “Substrate Selectivity”) was over 271.

Regarding `COc1ccc2c(-c3ccc(CNS(N)(=O)=O)cc3)c(C(F)(F)F)cnc2c1` [Example 386, N-(4-(7-methoxy-3-(trifluoromethyl)quinolin-4-yl)benzyl) sulfamide], the negative-log Ki (pKi) was 6.00 to 7.00 on ENPP1 [1] and over 7.00 at ENPP1 [2]. Further, on ENPP1 [3], the “Substrate Selectivity” value is 39.

As for `NS(=O)(=O)NCc1ccc(-c2ccnc3cc(F)ccc23)cc1` [Example 296, N-(4-(7-fluoroquinolin-4-yl)benzyl)sulfamide], the pKi at ENPP1 [1] was under 6.00; at ENPP1 [2], over 7.00. The “Substrate Selectivity” value at ENPP1 [3] is listed as over 40.3.

In the case of `COc1cc2ncc(C#N)c(-c3ccc(CNS(N)(=O)=O)cc3)c2cc1F` [Example 395, N-(4-(3-cyano-6-fluoro-7-methoxyquinolin-4-yl)benzyl)sulfamide], the pKi on ENPP1 [1] was 6.00 to 7.00; on ENPP1 [2], over 7.00. Moreover, the “Substrate Selectivity” value on ENPP1 [3] is over 31.

For the compound `COc1ccc2c(Oc3ccc(NS(N)(=O)=O)cc3C(F)(F)F)ccnc2c1` [Example 317, N-(4-((7-methoxyquinolin-4-yl)oxy)-3-(trifluoromethyl)phenyl)sulfamide], the pKi at ENPP1 [1] was under 6.00; at ENPP1 [2] it was 6.00 to 7.00. Moreover, on ENPP1 [3], the “Substrate Selectivity” value was over 49.9.

As for `COc1ccc2c(NC(C)c3ccc(NS(N)(=O)=O)cc3)ncnc2c1` (centres unmarked) [Example 279, N-(4-(1-((7-methoxyquinazolin-4-yl)amino)ethyl)phenyl)sulfamide], the pKi at ENPP1 [1] is 6.00 to 7.00; at ENPP1 [2] it was over 7.00. Further, the “Substrate Selectivity” value on ENPP1 [3] was determined as 24.2.

Regarding `COc1cc2ncn(-c3ccc(CNS(N)(=O)=O)cc3)c2cc1OC` [Example 120, N-(4-(5,6-dimethoxy-1H-benzo[d]imidazol-1-yl)benzyl)sulfamide], the pKi was under 6.00 at ENPP1 [1] and over 7.00 at ENPP1 [2]. Also, the “Substrate Selectivity” value on ENPP1 [3] is 54.5.

For the compound `COc1cc2nccc(Oc3ccc(S(N)(=O)=O)cc3)c2cc1OC` [Example 303, 4-((6,7-dimethoxyquinolin-4-yl)oxy)benzenesulfonamide], the pKi on ENPP1 [1] is 6.00 to 7.00; at ENPP1 [2], over 7.00. Besides, the “Substrate Selectivity” value on ENPP1 [3] is listed as 41.6.

With `COc1cc2nccc(-c3ccc(CNS(N)(=O)=O)cc3)c2cc1F` [Example 239, N-(4-(6-fluoro-7-methoxyquinolin-4-yl)benzyl)sulfamide], the pKi on ENPP1 [1] is 6.00 to 7.00; on ENPP1 [2] it was over 7.00. In addition, the “Substrate Selectivity” value on ENPP1 [3] is reported as 62.

Consider `Cn1c(=O)[nH]c2ncnc(N3CCC(CCNS(N)(=O)=O)CC3)c21` [Example 141, N-(2-(1-(7-methyl-8-oxo-8,9-dihydro-7H-purin-6-yl)piperidin-4-yl)ethyl)sulfamide], for which the values for the negative logarithm of the Ki (pKi) at ENPP1 [1] and at ENPP1 [2] were under 6.00 and over 7.00, respectively. Also, at ENPP1 [3], the “Substrate Selectivity” value was over 929.

On to `COc1ccc2c(Oc3cnc(NS(N)(=O)=O)nc3)ccnc2c1` [Example 224, N-(5-((7-methoxyquinolin-4-yl)oxy)pyrimidin-2-yl)sulfamide], for which the negative logarithm of the Ki (pKi) on ENPP1 [1] and on ENPP1 [2] was 6.00 to 7.00 throughout. Further, the “Substrate Selectivity” value on ENPP1 [3] was over 2.40.

Take `COc1cc2nccc(Oc3ccc(NS(N)(=O)=O)cc3)c2cc1F` [Example 282, N-(4-((6-fluoro-7-methoxyquinolin-4-yl)oxy)phenyl)sulfamide]: the pKi on ENPP1 [1] and at ENPP1 [2] was over 7.00 in each case.

As for `NS(=O)(=O)NCCC1CCN(c2cc(-c3ccc4c(c3)OCO4)ncn2)CC1` [Example 10, N-(2-(1-(6-(benzo[d][1,3]dioxol-5-yl)pyrimidin-4-yl)piperidin-4-yl)ethyl)sulfamide], the negative logarithm of the Ki (pKi) at ENPP1 [1] and on ENPP1 [2] was under 6.00 in each case.

Turning to `COc1cc2ncnc(N(C)c3ccc(NS(N)(=O)=O)cc3)c2cc1OC` [Example 190, N-(4-((6,7-dimethoxyquinazolin-4-yl)(methyl)amino)phenyl)sulfamide], the negative logarithm of the Ki (pKi) at ENPP1 [1] and on ENPP1 [2] was under 6.00 in each case.

For `COc1cc2ncnc(N3CCC4(CC3)CN(S(N)(=O)=O)C4)c2cc1OC` [Example 30, 7-(6,7-dimethoxyquinazolin-4-yl)-2,7-diazaspiro[3.5]nonane-2-sulfonamide], at ENPP1 [1], the pKi was under 6.00. Moreover, the “Substrate Selectivity” value on ENPP1 [3] was 39.4.

Take `COc1cc2nccc(Nc3ccc(NS(=O)(=O)C(F)(F)F)cc3)c2cc1OC` [Example 174, N-(4-((6,7-dimethoxyquinolin-4-yl)amino)phenyl)-1,1,1-trifluoromethanesulfonamide]: the pKi at ENPP1 [1] was under 6.00; at ENPP1 [2], 6.00 to 7.00.

For the compound `NS(=O)(=O)NCCC1CCN(c2ncnc3c[nH]nc23)CC1` [Example 27, N-(2-(1-(1H-pyrazolo[4,3-d]pyrimidin-7-yl)piperidin-4-yl)ethyl)sulfamide], the pKi on ENPP1 [2] is under 6.00.

Consider `COc1cc2ncnc(N3CCC(CCNS(=O)(=O)N(C)C)CC3)c2cc1OC` [Example 143, 2-(1-(6,7-dimethoxyquinazolin-4-yl)piperidin-4-yl)ethan-1-amino(N,N-dimethyl)sulfonamide], for which the pKi on ENPP1 [2] is under 6.00.

Take `COc1cc2ncnc(N3CCC(CCNC(N)=O)CC3)c2cc1OC` [Example 117, 1-(2-(1-(6,7-dimethoxyquinazolin-4-yl)piperidin-4-yl)ethyl)urea]: at ENPP1 [2], the pKi was 6.00 to 7.00.

For `COc1ccc2c(-c3ccc4c(c3)CN(S(N)(=O)=O)CC4)c(C#N)cnc2c1` [Example 249, 7-(3-cyano-7-methoxyquinolin-4-yl)-3,4-dihydroisoquinoline-2(1H)-sulfonamide], the values for the pKi on ENPP1 [1] and on ENPP1 [2] were under 6.00 and 6.00 to 7.00, respectively.

With `COc1cc2nc(-c3ccccn3)nc(N3CCC(CCNS(N)(=O)=O)CC3)c2cc1OC` [Example 4, N-(2-(1-(6,7-dimethoxy-2-(pyridin-2-yl)quinazolin-4-yl)piperidin-4-yl)ethyl)sulfamide], the negative-log Ki (pKi) at ENPP1 [2] is under 6.00.

Take `COc1cnc2c(-c3ccc(CNS(N)(=O)=O)cc3)ccnc2c1` [Example 369, N-(4-(7-methoxy-1,5-naphthyridin-4-yl)benzyl)sulfamide]: the negative-log Ki (pKi) at ENPP1 [2] is under 6.00.

Take `COc1ccc2c(-c3ccc(CNS(N)(=O)=O)cc3OC)ccnc2c1` [Example 383, N-(3-methoxy-4-(7-methoxyquinolin-4-yl)benzyl)sulfamide]: the pKi at ENPP1 [2] is under 6.00.

With `COc1cc2nccc(C(=O)N3CCC(CNS(N)(=O)=O)CC3)c2cc1OC` [Example 178, N-((1-(6,7-dimethoxyquinoline-4-carbonyl)piperidin-4-yl)methyl)sulfamide], on ENPP1 [2], the negative-log Ki (pKi) is under 6.00.

In the case of `Cc1ncnc(N2CCC(CCNS(N)(=O)=O)CC2)c1C` [Example 15, N-(2-(1-(5,6-dimethylpyrimidin-4-yl)piperidin-4-yl)ethyl)sulfamide], the pKi at ENPP1 [2] was under 6.00.

With `COc1cc2ncnc(N3CCN(C(=O)CN)CC3)c2cc1OC` [Example 119, 2-amino-1-(4-(6,7-dimethoxyquinazolin-4-yl)piperazin-1-yl)ethan-1-one], the negative-log Ki (pKi) on ENPP1 [2] was under 6.00.

Take `COc1ccc2c(Oc3ccc(NS(N)(=O)=O)cc3)ncnc2c1` [Example 322, N-(4-((7-methoxyquinazolin-4-yl)oxy)phenyl)sulfamide]: at ENPP1 [2], the pKi is over 7.00.

With `COc1cc2nccc(NC(C)c3ccc(NS(N)(=O)=O)cc3)c2cc1OC` (centres unmarked) [Example 181, N-(4-(1-((6,7-dimethoxyquinolin-4-yl)amino)ethyl)phenyl)sulfamide], at ENPP1 [2], the pKi was under 6.00.
